Laboratory results: US20160297833A1, “THIENOPYRIMIDINES AS MKNK1 AND MKNK2 INHIBITORS” (BAYER PHARMA AKTIENGESELLSCHAFT, priority 2013, published 2016)

target: T1, human full-length MKNK1 (Homo sapiens, UniProt Q9BUB5, T385D); assay: MKNK1 kinase high ATP assay (TR-FRET); assay type: biochemical; settings: Table 1; MKNK1 kinase high ATP assay, 2 mM ATP; read-out: MKNK1 IC50
T1 construct: GST (N); purchased Carna Biosciences 02-145; host or cells: insect cells (baculovirus expression system)
Summary of the method: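 Full-length human MKNK1 (T385D) preincubated 15 min at 22 °C with compound in HEPES pH 7.5/MgCl2/DTT buffer; reaction with 2 mM ATP (final) and 0.06 μM biotinylated peptide (final), 30 min at 22 °C.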

T1 sequence (Q9BUB5 1-424 isoform Q9BUB5-2 T344D): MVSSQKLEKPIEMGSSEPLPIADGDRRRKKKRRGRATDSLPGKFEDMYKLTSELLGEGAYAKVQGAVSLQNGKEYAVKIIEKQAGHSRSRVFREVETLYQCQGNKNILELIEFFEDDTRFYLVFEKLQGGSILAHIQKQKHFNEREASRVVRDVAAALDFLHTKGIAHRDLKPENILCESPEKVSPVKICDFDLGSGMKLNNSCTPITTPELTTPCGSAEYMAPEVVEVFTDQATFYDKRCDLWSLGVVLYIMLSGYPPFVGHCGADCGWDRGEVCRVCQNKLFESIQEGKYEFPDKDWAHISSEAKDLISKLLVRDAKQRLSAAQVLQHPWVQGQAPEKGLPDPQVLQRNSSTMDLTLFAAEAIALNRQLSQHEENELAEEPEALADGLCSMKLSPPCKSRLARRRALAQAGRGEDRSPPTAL

Row | Compound | IC50
1 | CC(C)Oc1cc2[nH]ncc2cc1Nc1ncnc2sc3c(c12)CC[C@H](C(=O)N1CC[C@H](N(C)C)C1)C3 [Example 168, [(3S)-3-(dimethylamino)pyrrolidin-1-yl][(7S)-4-{[6-(propan-2-yloxy)-1H-indazol-5-yl]amino}-5,6,7,8-tetrahydro[1]benzothieno[2,3-d]pyrimidin-7-yl]methanone] | 0.4 nM
2 | CC(C)Oc1cc2[nH]ncc2cc1Nc1ncnc2sc3c(c12)CC[C@H](C(=O)N1CC[C@@H](N(C)C)C1)C3 [Example 169, [(3R)-3-(Dimethylamino)pyrrolidin-1-yl][(7S)-4-{[6-(propan-2-yloxy)-1H-indazol-5-yl]amino}-5,6,7,8-tetrahydro[1]benzothieno[2,3-d]pyrimidin-7-yl]methanone] | 0.1 nM
3 | CCOc1cc2[nH]ncc2cc1Nc1ncnc2sc3c(c12)CC[C@H](C(=O)N1CC[C@H](N(C)C)C1)C3 [Example 172, [(3S)-3-(Dimethylamino)pyrrolidin-1-yl]{(7S)-4-[(6-ethoxy-1H-indazol-5-yl)amino]-5,6,7,8-tetrahydro[1]benzothieno[2,3-d]pyrimidin-7-yl}methanone] | 0.1 nM
4 | CCOc1cc2[nH]ncc2cc1Nc1ncnc2sc3c(c12)CC[C@H](C(=O)N(C)CC(C)(C)C)C3 [Example 173, (7S)—N-(2,2-Dimethylpropyl)-4-[(6-ethoxy-1H-indazol-5-yl)amino]-N-methyl-5,6,7,8-tetrahydro[1]benzothieno[2,3-d]pyrimidine-7-carboxamide] | 0.4 nM
5 | CCCN(C)C(=O)[C@H]1CCc2c(sc3ncnc(Nc4cc5cn[nH]c5cc4OCC)c23)C1 [Example 174, (7S)-4-[(6-Ethoxy-1H-indazol-5-yl)amino]-N-methyl-N-propyl-5,6,7,8-tetrahydro[1]benzothieno[2,3-d]pyrimidine-7-carboxamide] | 0.1 nM
6 | CCOc1cc2[nH]ncc2cc1Nc1ncnc2sc3c(c12)CC[C@H](C(=O)N1CC(N2CCCCC2)C1)C3 [Example 175, {(7S)-4-[(6-Ethoxy-1H-indazol-5-yl)amino]-5,6,7,8-tetrahydro[1]benzothieno[2,3-d]pyrimidin-7-yl}[3-(piperidin-1-yl)azetidin-1-yl]methanone] | 0.2 nM
7 | CN(C)C(=O)[C@H]1CCc2c(sc3ncnc(Nc4cc5cn[nH]c5cc4OCC(C)(C)C)c23)C1 [Example 176, (7S)-4-{[6-(2,2-Dimethylpropoxy)-1H-indazol-5-yl]amino}-N,N-dimethyl-5,6,7,8-tetrahydro[1]benzothieno[2,3-d]pyrimidine-7-carboxamide] | 39.8 nM

The remaining compounds from weak to strong by IC50, led by results:

Row | IC50 | Compound
8 | 2.6 nM | COc1cc2[nH]ncc2cc1Nc1ncnc2sc3c(c12)CC[C@H](C(=O)N(C)CC(C)(C)C)C3 [Example 177, (7S)—N-(2,2-Dimethylpropyl)-4-[(6-methoxy-1H-indazol-5-yl)amino]-N-methyl-5,6,7,8-tetrahydro[1]benzothieno[2,3-d]pyrimidine-7-carboxamide]
9 | 0.6 nM | COc1cc2[nH]ncc2cc1Nc1ncnc2sc3c(c12)CC[C@H](C(=O)N(C)CCCn1ccnc1)C3 [Example 170, (7S)—N-[3-(1H-Imidazol-1-yl)propyl]-4-[(6-methoxy-1H-indazol-5-yl)amino]-N-methyl-5,6,7,8-tetrahydro[1]benzothieno[2,3-d]pyrimidine-7-carboxamide]
10 | 0.4 nM | COc1cc2[nH]ncc2cc1Nc1ncnc2sc3c(c12)CC[C@H](C(=O)N(C)CCn1ccnc1)C3 [Example 171, (7S)—N-[2-(1H-Imidazol-1-yl)ethyl]-4-[(6-methoxy-1H-indazol-5-yl)amino]-N-methyl-5,6,7,8-tetrahydro[1]benzothieno[2,3-d]pyrimidine-7-carboxamide]
11 | 0.2 nM | COc1cc2[nH]ncc2cc1Nc1ncnc2sc3c(c12)CC[C@H](C(=O)N1CC(N2CCCCC2)C1)C3 [Example 178, {(7S)-4-[(6-Methoxy-1H-indazol-5-yl)amino]-5,6,7,8-tetrahydro[1]benzothieno[2,3-d]pyrimidin-7-yl}[3-(piperidin-1-yl)azetidin-1-yl]methanone]
